Data published in patent US9686985B2, “Fungicide N-cycloalkyl-N-bicyclicmethylene-carboxamide derivatives” (BAYER INTELLECTUAL PROPERTY GMBH, priority 2012, dated 2017).

Tests used:
[1] = system: Alternaria solani; assay: Example C: in vivo preventive test on Alternaria solani (tomato); settings: table C2, dose 100 ppm, comparison with WO-2010/086311 compound
Experimental: Example C: In Vivo Preventive Test on Alternaria solani (Tomato) [table] To produce a suitable preparation of active compound, 1 part by weight of active compound is mixed with the stated amounts of solvent and emulsifier, and the concentrate is diluted with water to the desired concentration. To test for preventive activity, young plants are sprayed with the preparation of active compound at the stated rate of application. One day after this treatment, the plants are inoculated with an aqueous spore suspension of Alternaria solani. The plants remain for one day in an incubation cabinet at approximately 22° C. and a relative atmospheric humidity of 100%. Then the plants are placed in an incubation cabinet at approximately 20° C. and a relative atmospheric humidity of 96%.

[2] = system: Pyrenophora teres; assay: Example N: in vivo preventive test on Pyrenophora teres (barley); settings: table N; 500 ppm; barley plants; grading 14 days after contamination
Experimental: Example N: In Vivo Preventive Test on Pyrenophora teres (Barley) […] Barley plants (“Plaisant” variety), sown in starter cups on a 50/50 peat soil pozzolana substrate and grown at 22° C., are treated at the 1 leaf stage (10 cm height) by spraying with the active ingredient prepared as described above. Plants, used as controls, are treated with the mixture of acetone/tween/DMSO/water not containing the active material. After 24 hours, the plants are contaminated by spraying the leaves with an aqueous suspension of Pyrenophora teres spores (12 000 spores per mL). The spores are collected from a 12-day-old culture. The contaminated barley plants are incubated for 48 hours at 20° C. and at 100% relative humidity, and then for 12 days at 20° C. at 70-80% relative humidity. Grading (% of efficacy) is carried out 14 days after the contamination, in comparison with the control plants.

[3] = system: Sphaerotheca fuliginea; assay: Example B: in vivo preventive test on Sphaerotheca fuliginea (powdery mildew on cucurbits); settings: table B; 500 ppm; gherkin plants; grading 12 days after contamination
Experimental: Example B: In Vivo Preventive Test on Sphaerotheca fuliginea (Powdery Mildew on Cucurbits) […] Gherkin plants (“Vert petit de Paris” variety), sown in starter cups on a 50/50 peat soil-pozzolana substrate and grown at 24° C., are treated at the Z11 cotyledon stage by spraying with the active ingredient prepared as described above. Plants, used as controls, are treated with the mixture of acetone/tween/DMSO/water not containing the active material. After 24 hours, the plants are contaminated by spraying the cotyledons with an aqueous suspension of Sphaerotheca fuliginea spores (100 000 spores per mL). The spores are collected from infected plants. The contaminated gherkin plants are incubated at about 20° C. and at 70-80% relative humidity. Grading (% of efficacy) is carried out 12 days after the contamination, in comparison with the control plants.

[4] = system: Uromyces appendiculatus; assay: Example G: in vivo preventive test on Uromyces appendiculatus (bean rust); settings: bean plants
Experimental: Example G: In Vivo Preventive Test on Uromyces appendiculatus (Bean Rust) […] Bean plants (“Saxa” variety), sown in starter cups on a 50/50 peat soil pozzolana substrate and grown at 24° C., are treated at the 2 leaf stage (9 cm height) by spraying with the active ingredient prepared as described above. Plants, used as controls, are treated with the mixture of acetone/tween/DMSO/water not containing the active material. After 24 hours, the plants are contaminated by spraying the leaves with an aqueous suspension of Uromyces appendiculatus spores (150 000 spores per mL). The spores are collected from infected plants and are suspended in water containing 2.5 mL/L of Tween 80 at 10%. The contaminated bean plants are incubated for 24 hours at 20° C. and at 100% relative humidity, and then for 10 days at 20° C. and at 70-80% relative humidity. Grading (% of efficacy) is carried out 11 days after the contamination, in comparison with the control plants.

[5] = system: Puccinia recondita; assay: Example R: in vivo preventive test on Puccinia recondita (brown rust on wheat); settings: table R; 500 ppm; wheat plants; grading 12 days after contamination
Experimental: Example R: In Vivo Preventive Test on Puccinia recondita (Brown Rust on Wheat) […] Wheat plants (“Scipion” variety), sown in starter cups on a 50/50 peat soil pozzolana substrate and grown at 22° C., are treated at the 1 leaf stage (10 cm height) by spraying with the active ingredient prepared as described above. Plants, used as controls, are treated with the mixture of acetone/tween/DMSO/water not containing the active material. After 24 hours, the plants are contaminated by spraying the leaves with an aqueous suspension of Puccinia recondita spores (100 000 spores per mL). The spores are collected from an infected plant and are suspended in water containing 2.5 mL/L of Tween 80 at 10%. The contaminated wheat plants are incubated for 24 hours at 20° C. and at 100% relative humidity, and then for 10 days at 20° C. and at 70-80% relative humidity. Grading (% of efficacy) is carried out 12 days after the contamination, in comparison with the control plants.

[6] = system: Pyricularia oryzae; format: in vivo; settings: table Q; 500 ppm; rice plants; grading 6 days after contamination
[7] = system: Septoria tritici; assay: Example L: in vivo preventive test on Septoria tritici (wheat); settings: table L; 500 ppm; wheat plants; grading 24 days after contamination
Experimental: Example L: In Vivo Preventive Test on Septoria tritici (Wheat) […] Wheat plants (“Scipion” variety), sown in starter cups on a 50/50 peat soil pozzolana substrate and grown at 22° C., are treated at the 1 leaf stage (10 cm height) by spraying with the active ingredient prepared as described above. Plants, used as controls, are treated with the mixture of acetone/tween/DMSO/water not containing the active material. After 24 hours, the plants are contaminated by spraying the leaves with an aqueous suspension of cryopreserved Septoria tritici spores (500 000 spores per mL). The contaminated wheat plants are incubated for 72 hours at 18° C. and at 100% relative humidity, and then for 21 days at 90% relative humidity. Grading (% of efficacy) is carried out 24 days after the contamination, in comparison with the control plants.

[8] = log P by HPLC on reversed-phase column (EEC Directive 79/831 Annex V.A8); format: physicochemical; settings: Table 1; HPLC C18, 40° C., 0.1% aqueous formic acid and acetonitrile gradient
Experimental: In table 1, the log P values were determined in accordance with EEC Directive 79/831 Annex V.A8 by HPLC (High Performance Liquid Chromatography) on a reversed-phase column (C 18), using the method described below: Temperature: 40° C.; Mobile phases: 0.1% aqueous formic acid and acetonitrile; linear gradient from 10% acetonitrile to 90% acetonitrile. Calibration was carried out using unbranched alkan-2-ones (comprising 3 to 16 carbon atoms) with known log P values (determination of the log P values by the retention times using linear interpolation between two successive alkanones). lambda-max-values were determined using UV-spectra from 200 nm to 400 nm and the peak values of the chromatographic signals.

[9] = system: Alternaria brassicae; assay: Example D: in vivo preventive test on Alternaria brassicae (leaf spot on radish); settings: table D; 500 ppm; radish plants; grading 6 days after contamination
Experimental: Example D: In Vivo Preventive Test on Alternaria brassicae (Leaf Spot on Radish) […] Radish plants (“Pernod Clair” variety), sown in starter cups on a 50/50 peat soil pozzolana substrate and grown at 17° C., are treated at the cotyledon stage by spraying with the active ingredient prepared as described above. Plants, used as controls, are treated with the mixture of acetone/tween/DMSO/water not containing the active material. After 24 hours, the plants are contaminated by spraying the cotyledons with an aqueous suspension of Alternaria brassicae spores (50 000 spores per mL). The spores are collected from a 15-day-old culture. The contaminated radish plants are incubated at 20° C. and at 100% relative humidity. Grading (% of efficacy) is carried out 6 days after the contamination, in comparison with the control plants.

[10] = system: Botrytis cinerea; assay: Example S: in vivo preventive test on Botrytis cinerea (grey mould); settings: table S; 500 ppm; gherkin plants; grading 4 to 5 days after contamination
Experimental: Example S: In Vivo Preventive Test on Botrytis cinerea (Grey Mould) […] Gherkin plants (“Vert petit de Paris” variety), sown in starter cups on a 50/50 peat soil pozzolana substrate and grown at 24° C., are treated at the Z11 cotyledon stage by spraying with the active ingredient prepared as described above. Plants, used as controls, are treated with the mixture of acetone/tween/DMSO/water not containing the active material. After 24 hours, the plants are contaminated by spraying the cotyledons with an aqueous suspension of cryopreserved Botrytis cinerea spores (50 000 spores per mL). The spores are suspended in a nutrient solution composed of 10 g/L of PDB, 50 g/L of D-Fructose, 2 g/L of NH4NO3 and 1 g/L of KH2PO4. The contaminated gherkin plants are incubated at 17° C. and at 90% relative humidity. Grading (% of efficacy) is carried out 4 to 5 days after the contamination, in comparison with the control plants.

[11] = table G1, 500 ppm, grading 11 days after contamination

Row | Compound | Efficacy [1] | Efficacy ([1]; listed as I.2 from WO-2010/086311) [%] | Efficacy [2] [%] | Efficacy [3] [%] | Efficacy [4, 11] [%] | Efficacy ([4]; table G2, dose 100 ppm) [%] | Efficacy ([4]; table G2, dose 500 ppm) [%] | Efficacy [5] [%] | Efficacy [6] [%] | Efficacy [7] [%] | logP [8] | Efficacy [9] [%] | Efficacy [10] [%]
1 | Cc1nn(C)c(F)c1C(=O)N(C1CC1)C(C)C1CCCc2ccccc21 (stereo not drawn) [1.2 from WO-2010/086311, N-cyclopropyl-5-fluoro-1,3-dimethyl-N-[1-(1,2,3,4-tetrahydronaphthalen-1-yl)ethyl]-1H-pyrazole-4-carboxamide, reference compound] | no protection | 0 |  |  |  |  |  |  |  |  |  |  | 
2 | Cc1cccc2c1CCC2CN(C(=O)c1c(C(F)F)nn(C)c1F)C1CC1 (stereo not drawn) [I.3] |  |  | 100 | 100 | 100 | 88 | 100 | 94 | 97 | 100 | 3.71 | 97 | 
3 | Cn1nc(C(F)F)c(C(=O)N(CC2CCc3c(F)cccc32)C2CC2)c1Cl (stereo not drawn) [I.8] |  |  | 86 | 100 |  |  |  | 75 | 83 | 71 | 3.55 |  | 
4 | Cn1nc(C(F)F)c(C(=S)N(CC2CC(C)(C)c3ccccc32)C2CC2)c1F (stereo not drawn) [I.11] |  |  | 100 | 100 |  |  |  | 94 |  | 100 | 4.69 | 100 | 100
5 | Cn1nc(C(F)F)c(C(=O)N(CC2CCc3cccc(Cl)c32)C2CC2)c1F (stereo not drawn) [I.14] |  |  | 93 | 100 | 100 | 50 | 100 | 81 | 75 | 97 | 3.80 | 100 | 
6 | Cn1nc(C(F)F)c(C(=O)N(CC2CCc3ccc(C(F)(F)F)cc32)C2CC2)c1F (stereo not drawn) [I.17] |  |  | 86 | 100 | 100 |  |  | 100 |  | 94 | 3.87 |  | 100
7 | Cn1nc(C(F)F)c(C(=S)N(CC2CCc3c(Cl)cc(Cl)cc32)C2CC2)c1F (stereo not drawn) [I.20] |  |  | 100 | 100 | 100 |  |  | 83 |  | 97 | 5.22 | 100 | 75
8 | Cn1nc(C(F)F)c(C(=O)N(CC2CCc3cccc(Br)c32)C2CC2)c1F (stereo not drawn) [I.21] |  |  | 79 | 100 | 98 |  |  | 88 | 83 | 93 | 3.92 | 100 | 
9 | CC1CCC(CN(C(=O)c2c(C(F)F)nn(C)c2F)C2CC2)c2ccccc21 (stereo not drawn) [I.24] |  |  | 100 | 100 | 100 |  |  | 94 |  | 100 | 3.96 | 100 | 100
10 | Cn1nc(C(F)F)c(C(=O)N(CC2CCCCc3ccccc32)C2CC2)c1F (stereo not drawn) [I.30] |  |  | 100 | 100 | 100 |  |  | 94 |  | 100 | 3.90 | 100 | 100
11 | Cn1nc(C(F)F)c(C(=O)N(CC2CCOc3ccccc32)C2CC2)c1F (stereo not drawn) [I.31] |  |  | 100 | 100 | 94 |  |  | 83 |  | 100 | 3.00 | 100 | 100
12 | Cn1nc(C(F)F)c(C(=O)N(CC2CCSc3ccc(Cl)cc32)C2CC2)c1F (stereo not drawn) [I.36] |  |  | 94 | 85 | 100 |  |  | 78 |  | 79 | 3.83 | 100 | 97
